Results taken from publication PMC9090415, “Discovery of small molecule inhibitors of Plasmodium falciparum apicoplast DNA polymerase” (Journal of Enzyme Inhibition and Medicinal Chemistry, 2022).

Molecular target: T1, bacteriophage T4 DNA polymerase (Enterobacteria phage T4, UniProt P04415)
T1 construct: made in house
T1 sequence (P04415 1-898): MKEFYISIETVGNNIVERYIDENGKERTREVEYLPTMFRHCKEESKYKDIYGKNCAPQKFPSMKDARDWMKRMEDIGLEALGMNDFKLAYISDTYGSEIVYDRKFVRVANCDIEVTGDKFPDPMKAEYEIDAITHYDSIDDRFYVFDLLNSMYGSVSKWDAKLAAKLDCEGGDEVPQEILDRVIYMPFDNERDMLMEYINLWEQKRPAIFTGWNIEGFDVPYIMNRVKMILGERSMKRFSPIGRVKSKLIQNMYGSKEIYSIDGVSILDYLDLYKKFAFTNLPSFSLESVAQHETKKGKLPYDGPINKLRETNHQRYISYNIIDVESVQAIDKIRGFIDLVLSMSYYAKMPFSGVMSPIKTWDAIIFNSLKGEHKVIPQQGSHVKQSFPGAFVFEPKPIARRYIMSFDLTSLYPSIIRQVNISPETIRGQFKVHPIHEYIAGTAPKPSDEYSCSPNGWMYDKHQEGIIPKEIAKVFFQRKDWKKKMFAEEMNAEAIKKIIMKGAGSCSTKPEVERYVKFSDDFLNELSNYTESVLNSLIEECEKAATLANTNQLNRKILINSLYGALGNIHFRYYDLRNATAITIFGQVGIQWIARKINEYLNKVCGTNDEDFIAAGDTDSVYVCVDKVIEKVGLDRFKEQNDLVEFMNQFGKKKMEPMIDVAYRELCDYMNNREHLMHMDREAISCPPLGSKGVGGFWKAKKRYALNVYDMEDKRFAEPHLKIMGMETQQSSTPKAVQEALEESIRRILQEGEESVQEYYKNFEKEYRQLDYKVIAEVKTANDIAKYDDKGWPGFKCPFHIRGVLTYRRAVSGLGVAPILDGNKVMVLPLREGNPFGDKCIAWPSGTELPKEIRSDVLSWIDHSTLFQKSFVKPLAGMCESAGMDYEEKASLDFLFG
Assay: Counter-screen against bacteriophage T4 DNA polymerase
Assay type: biochemical
Details: for % inhibition T4 10' 2.5 / % inhibition T4 10' 5 / % inhibition T4 10' 10 / % inhibition T4 10' 20 / % inhibition T4 10' 40 / % inhibition T4 10' 80: read at 10'
Experimental: Codon-optimized, exonuclease-deficient Pf-apPOL was overexpressed in E. coli BL21 (DE3) and purified as described. The protein was dialysed against two, 1-liter changes of 20 mM Tris-HCl (pH 8.0), 400 mM NaCl, and 20% glycerol. Plasmodium bergei and Babesia bovis apPOLs (Pb-apPOL and Bb-apPOL, respectively) were codon-optimized, expressed, and purified as for Pf-apPOL[15]. Bacteriophage T4 DNA polymerase was purified as described. The DNA oligonucleotides used to make the high-throughput substrate were obtained from Integrated DNA Technologies. Deoxynucleotides were purchased from Strategene. All other materials came from Fisher Scientific.
Each compound was tested in a dose-response format to determine IC50 values. […] T4 DNA polymerase can be produced in large quantities, and is in the same family (B-family) as the replicative human DNA polymerases (α, δ, and ε)[20].

Q: Which results are given for `COc1ccccc1CC(=O)N1CCc2c(nc3cc(-c4ccccc4Cl)[nH]n3c2=O)C1` [Molecule 49, COc1ccccc1CC(=O)N1CCc2c(C1)nc1n(c2=O)[nH]c(c1)c1ccccc1Cl]?
A: % inhibition T4 10' 2.5 (DRC-1, concentration 2.5): -1.17%; % inhibition T4 10' 5 (DRC-1, concentration 5): -4%; % inhibition T4 10' 10 (DRC-1, concentration 10): -5.62%; % inhibition T4 10' 20 (DRC-1, concentration 20): -14%; % inhibition T4 10' 40 (DRC-1, concentration 40): -19%; % inhibition T4 10' 80 (DRC-1, concentration 80): -3%; % inhibition T4 70' 2.5 (DRC-1, read at 70', concentration 2.5): -2.29%; % inhibition T4 70' 5 (DRC-1, read at 70', concentration 5): -6%; % inhibition T4 70' 10 (DRC-1, read at 70', concentration 10): -6%; % inhibition T4 70' 20 (DRC-1, read at 70', concentration 20): -13%; % inhibition T4 70' 40 (DRC-1, read at 70', concentration 40): -18%; % inhibition T4 70' 80 (DRC-1, read at 70', concentration 80): -7%; % inhibition T4 130' 2.5 (DRC-1, read at 130', concentration 2.5): -4%; % inhibition T4 130' 5 (DRC-1, read at 130', concentration 5): -6%; % inhibition T4 130' 10 (DRC-1, read at 130', concentration 10): -5%; % inhibition T4 130' 20 (DRC-1, read at 130', concentration 20): -12%; % inhibition T4 130' 40 (DRC-1, read at 130', concentration 40): -13%; % inhibition T4 130' 80 (DRC-1, read at 130', concentration 80): -11%; % inhibition T4 10' 2.5 (DRC-2, concentration 2.5): -1%; % inhibition T4 10' 5 (DRC-2, concentration 5): -28%; % inhibition T4 10' 10 (DRC-2, concentration 10): -40%; % inhibition T4 10' 20 (DRC-2, concentration 20): -50%; % inhibition T4 10' 40 (DRC-2, concentration 40): -55%; % inhibition T4 10' 80 (DRC-2, concentration 80): -54%; % inhibition T4 40' 2.5 (DRC-2, read at 40', concentration 2.5): -2.7%; % inhibition T4 40' 5 (DRC-2, read at 40', concentration 5): -24%; % inhibition T4 40' 10 (DRC-2, read at 40', concentration 10): -34%; % inhibition T4 40' 20 (DRC-2, read at 40', concentration 20): -45%; % inhibition T4 40' 40 (DRC-2, read at 40', concentration 40): -51%; % inhibition T4 40' 80 (DRC-2, read at 40', concentration 80): -47%; % inhibition T4 90' 2.5 (DRC-2, read at 90', concentration 2.5): -4%; % inhibition T4 90' 5 (DRC-2, read at 90', concentration 5): -22%; % inhibition T4 90' 10 (DRC-2, read at 90', concentration 10): -31%; % inhibition T4 90' 20 (DRC-2, read at 90', concentration 20): -41%; % inhibition T4 90' 40 (DRC-2, read at 90', concentration 40): -49%; % inhibition T4 90' 80 (DRC-2, read at 90', concentration 80): -47%; % inhibition T4 180' 2.5 (DRC-2, read at 180', concentration 2.5): -9%; % inhibition T4 180' 5 (DRC-2, read at 180', concentration 5): -24%; % inhibition T4 180' 10 (DRC-2, read at 180', concentration 10): -28%; % inhibition T4 180' 20 (DRC-2, read at 180', concentration 20): -39%; % inhibition T4 180' 40 (DRC-2, read at 180', concentration 40): -47%; % inhibition T4 180' 80 (DRC-2, read at 180', concentration 80): -46%

Q: `COc1ccc(CNC(=O)Cn2nc3c(c2NC(=O)Cc2cccs2)CSC3)cc1` [Molecule 55, COc1ccc(cc1)CNC(=O)Cn1nc2c(c1NC(=O)Cc1cccs1)CSC2] was tested. Which “% inhibition T4 10'” value (DRC-2, concentration 5) did it give?
A: Its value is 18%.

Q: What about the “% inhibition T4 10'” value (DRC-2, concentration 10) of the same molecule?
A: Its value is 26%.

Q: What about the “% inhibition T4 10'” value (DRC-2, concentration 20) of the same molecule?
A: Its value is 26%.

Q: What about the “% inhibition T4 40'” value (DRC-2, concentration 10) of the same molecule?
A: Its value is 26%.

Q: And the “% inhibition T4 40'” value (DRC-2, concentration 20)?
A: Its value is 28%.

Q: And the “% inhibition T4 40'” value (DRC-2, concentration 80)?
A: The value was 38%.

Q: And the “% inhibition T4 90'” value (DRC-2, concentration 20)?
A: The value was 26%.

Q: And the “% inhibition T4 90'” value (DRC-2, concentration 80)?
A: The value was 38%.

Q: What about the “% inhibition T4 180'” value (DRC-2, concentration 10) of the same molecule?
A: The value was 18%.

Q: What about the “% inhibition T4 180'” value (DRC-2, concentration 40) of the same molecule?
A: Its value is 28%.

Q: Which “% inhibition T4 10'” value (DRC-2, concentration 2.5) does the source give for `COc1ccc(-c2cc3nc4c(c(=O)n3[nH]2)CCN(C(=O)CCc2ccccc2)C4)cc1` [Molecule 17, COc1ccc(cc1)c1[nH]n2c(c1)nc1c(c2=O)CCN(C1)C(=O)CCc1ccccc1] here?
A: The value was -22%.

Q: What about the “% inhibition T4 10'” value (DRC-2, concentration 5) of the same molecule?
A: Its value is -46%.

Q: And the “% inhibition T4 10'” value (DRC-2, concentration 10)?
A: The value was -38%.

Q: And the “% inhibition T4 10'” value (DRC-2, concentration 20)?
A: Its value is -44%.

Q: What about the “% inhibition T4 10'” value (DRC-2, concentration 40) of the same molecule?
A: The value was -44%.

Q: What about the “% inhibition T4 40'” value (DRC-2, concentration 5) of the same molecule?
A: The value was -38%.

Q: And the “% inhibition T4 40'” value (DRC-2, concentration 10)?
A: The value was -30%.

Q: And the “% inhibition T4 90'” value (DRC-2, concentration 10)?
A: Its value is -25%.

Q: What about the “% inhibition T4 90'” value (DRC-2, concentration 40) of the same molecule?
A: The value was -30%.

Q: What about the “% inhibition T4 90'” value (DRC-2, concentration 80) of the same molecule?
A: Its value is -46%.

Q: What about the “% inhibition T4 180'” value (DRC-2, concentration 2.5) of the same molecule?
A: Its value is -13%.

Q: And the “% inhibition T4 180'” value (DRC-2, concentration 10)?
A: The value was -22%.

Q: And the “% inhibition T4 180'” value (DRC-2, concentration 20)?
A: The value was -23%.

Q: What about the “% inhibition T4 180'” value (DRC-2, concentration 40) of the same molecule?
A: Its value is -25%.

Q: `CC1(C)CC(=O)C2=C(C1)OC1=C(C(=O)CC(C)(C)C1)C2c1ccc(O)cc1` [KU0194226] was tested. Which “% inhibition T4 10'” value (DRC-2, concentration 40) did it give?
A: The value was 18%.

Q: What about the “% inhibition T4 40'” value (DRC-2, concentration 5) of the same molecule?
A: The value was 17%.

Q: What about the “% inhibition T4 40'” value (DRC-2, concentration 10) of the same molecule?
A: The value was 18%.

Q: What about the “% inhibition T4 40'” value (DRC-2, concentration 40) of the same molecule?
A: Its value is 12%.

Q: And the “% inhibition T4 40'” value (DRC-2, concentration 80)?
A: The value was 30%.

Q: What about the “% inhibition T4 90'” value (DRC-2, concentration 10) of the same molecule?
A: Its value is 17%.

Q: What about the “% inhibition T4 90'” value (DRC-2, concentration 40) of the same molecule?
A: The value was 12%.

Q: What about the “% inhibition T4 90'” value (DRC-2, concentration 80) of the same molecule?
A: The value was 30%.

Q: And the “% inhibition T4 180'” value (DRC-2, concentration 2.5)?
A: The value was 18%.

Q: What about the “% inhibition T4 180'” value (DRC-2, concentration 5) of the same molecule?
A: Its value is 12%.

Q: What about the “% inhibition T4 180'” value (DRC-2, concentration 40) of the same molecule?
A: The value was 12%.

Q: And the “% inhibition T4 180'” value (DRC-2, concentration 80)?
A: The value was 30%.

Q: `CN(C)S(=O)(=O)Oc1ccc(-c2noc(-c3ccc(Oc4cc(Cl)cc(Cl)c4)o3)n2)cc1` [KU0263859] was tested. Which “% inhibition T4 10'” value (DRC-2, concentration 5) did it give?
A: Its value is 17%.

Q: What about the “% inhibition T4 10'” value (DRC-2, concentration 10) of the same molecule?
A: The value was 35%.

Q: And the “% inhibition T4 10'” value (DRC-2, concentration 20)?
A: Its value is 35%.

Q: And the “% inhibition T4 40'” value (DRC-2, concentration 5)?
A: The value was 17%.

Q: And the “% inhibition T4 40'” value (DRC-2, concentration 20)?
A: Its value is 38%.

Q: What about the “% inhibition T4 40'” value (DRC-2, concentration 40) of the same molecule?
A: Its value is 43%.

Q: What about the “% inhibition T4 40'” value (DRC-2, concentration 80) of the same molecule?
A: The value was 43%.

Q: What about the “% inhibition T4 90'” value (DRC-2, concentration 20) of the same molecule?
A: The value was 35%.

Q: What about the “% inhibition T4 180'” value (DRC-2, concentration 40) of the same molecule?
A: Its value is 38%.

Q: What about the “% inhibition T4 180'” value (DRC-2, concentration 80) of the same molecule?
A: Its value is 43%.
